Data as given in publication PMC6685790 (Nature structural & molecular biology, 2008).
Changes are numbered by the printed parent chain. One block for each molecule: values may come before it.

Assays:
Format in all cases: cell-based
GlyR α1^I111A = target: T1, GlyR α1^I111A (Homo sapiens, UniProt P23415, I139A); assay: Whole-cell recording of substituted GlyR in HEK cells
T1 sequence (P23415 29-457 I139A): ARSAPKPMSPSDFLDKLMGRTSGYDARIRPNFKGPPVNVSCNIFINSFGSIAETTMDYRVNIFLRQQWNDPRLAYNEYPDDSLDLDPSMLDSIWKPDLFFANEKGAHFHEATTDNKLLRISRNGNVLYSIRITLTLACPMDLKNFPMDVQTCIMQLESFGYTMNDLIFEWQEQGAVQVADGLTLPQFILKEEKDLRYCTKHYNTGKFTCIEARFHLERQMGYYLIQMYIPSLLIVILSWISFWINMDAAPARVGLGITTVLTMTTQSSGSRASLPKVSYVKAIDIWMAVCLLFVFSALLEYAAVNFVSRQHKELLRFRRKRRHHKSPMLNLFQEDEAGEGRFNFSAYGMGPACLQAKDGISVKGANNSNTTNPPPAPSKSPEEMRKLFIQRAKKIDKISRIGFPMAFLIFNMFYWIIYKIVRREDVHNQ

GlyR α1^L134A, E157A = target: T2, GlyR α1^L134A, E157A (Homo sapiens, UniProt P23415, E185A/L162A); assay: as above
T2 sequence (P23415 29-457 L162A/E185A): T1 sequence (P23415 29-457 I139A) with A111I, L134A, E157A

GlyR α1^L118A = target: T3, GlyR α1^L118A (Homo sapiens, UniProt P23415, L146A); assay: as above
T3 sequence (P23415 29-457 L146A): T1 sequence (P23415 29-457 I139A) with A111I, L118A

GlyR α1^I62A = target: T4, GlyR α1^I62A (Homo sapiens, UniProt P23415, I90A); assay: as above
T4 sequence (P23415 29-457 I90A): T1 sequence (P23415 29-457 I139A) with I62A, A111I

GlyR α1^F100A = target: T5, GlyR α1^F100A (Homo sapiens, UniProt P23415, F128A); assay: as above
T5 sequence (P23415 29-457 F128A): T1 sequence (P23415 29-457 I139A) with F100A, A111I

GlyR α1^F108A = target: T6, GlyR α1^F108A (Homo sapiens, UniProt P23415, F136A); conditions: α1^F108A
T6 sequence (P23415 29-457 F136A): T1 sequence (P23415 29-457 I139A) with F108A, A111I

[1] = maximal Zn^2+ response as percentage of maximal glycine response in same cell
[2] = read-out: Zn^2+ Activation EC50, direct activation without glycine
[3] = read-out: Zn^2+ Inhibition IC50, modulation of EC50 glycine currents

- Glycine Imax (GlyR α1^I111A): 4.6 ± 0.8 nA
- Glycine nH (GlyR α1^I111A; Hill slope): 1.3 ± 0.2
- Reduction in sensitivity to glycine (GlyR α1^L134A, E157A; α1^L134A with extra mutation E157A vs α1^L134A): 50 fold
- Threshold concentration for glycine (GlyR α1^L134A, E157A; α1^L134A, E157A): > 100 µM
- Glycine Imax (GlyR α1^L118A): 6.3 ± 0.7 nA
- Glycine nH (GlyR α1^L118A; Hill slope): 3.00 ± 0.2
- Glycine Imax (GlyR α1^I62A): 7.6 ± 0.7 nA
- Glycine nH (GlyR α1^I62A; Hill slope): 2.5 ± 0.1
- Glycine Imax (GlyR α1^F100A): 4.5 ± 0.7 nA
- Glycine nH (GlyR α1^F100A; Hill slope): 1.8 ± 0.2
- Glycine Imax (GlyR α1^F108A): 4.5 ± 0.5 nA
- Glycine nH (GlyR α1^F108A; Hill slope): 2.3 ± 0.1
Compound: NCC(=O)O [Glycine, glycine]

- Zn^2+ Activation nH (GlyR α1^I111A; Hill slope): 0.7 ± 0.2
- Zn^2+ Activation Relative efficacy (% Gly Imax) (GlyR α1^I111A; [1]): 83 ± 3 % Gly Imax
- EC50 (GlyR α1^I111A; [2]): 470 ± 130 µM
- IC50 (GlyR α1^I111A; [3]): > 1000 µM
- Reduction in sensitivity to Zn^2+ activation (GlyR α1^L134A, E157A; α1^L134A, E157A vs α1^L134A): 3 fold
- Zn^2+ Activation EC50 (GlyR α1^L118A; direct activation without glycine): None
- IC50 (GlyR α1^L118A; [3]): 10.3 ± 0.36 µM
- Zn^2+ Activation Relative efficacy (% Gly Imax) (GlyR α1^I62A; maximal activation with 1 mM Zn^2+, as percentage of maximal glycine response in same cell): 3 ± 1 % Gly Imax
- EC50 (GlyR α1^I62A; [2]): > 1000 µM
- IC50 (GlyR α1^I62A; [3]): > 1000 µM
- Zn^2+ Activation nH (GlyR α1^F100A; Hill slope): 0.5 ± 0.1
- Zn^2+ Activation Relative efficacy (% Gly Imax) (GlyR α1^F100A; [1]): 7 ± 4 % Gly Imax
- EC50 (GlyR α1^F100A; [2]): 9.2 ± 0.6 µM
- IC50 (GlyR α1^F100A; [3]): > 1000 µM
- EC50 (GlyR α1^F108A; [2]): 2.3 ± 0.6 µM
- IC50 (GlyR α1^F108A; [3]): > 1000 µM
- Zn^2+ Activation nH (GlyR α1^F108A; Hill slope): 0.7 ± 0.1
- Zn^2+ Activation Relative efficacy (% Gly Imax) (GlyR α1^F108A; [1]): 25 ± 6 % Gly Imax
Compound: [Zn+2] [Zn^2+]
